Measured values as given in PubChem BioAssay AID256 (DTP/NCI, 2004).
Several values for one entry are separate records, joined by “and”; a condition that tells them apart may be missing. Equal values may be shown once. Inconclusive results and toxic doses are left out. Rule for the calls: active = survival T/C of 150% or more; inactive = T/C below 125% in these data.

Test system: CD2F1 mice, L1210 leukemia ip, survival T/C
Experiment: NCI In Vivo Anticancer Drug Screen. Data for tumor model L1210 Leukemia (intraperitoneal) in CD2F1 (CDF1) mice
Settings: higher = longer survival
In short: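 Each value reflects a quotient of treated over vehicle control outcomes in mice with a transplanted tumor.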

[1] = endpoint: mean survival time, dose: 100.0 mg/kg/injection, schedule: Q04DX003 (ip), vehicle: Klucel (hydroxypropylcellulose) (HPC)
[2] = endpoint: mean survival time, dose: 200.0 mg/kg/injection, schedule: Q04DX003 (ip), vehicle: Klucel (hydroxypropylcellulose) (HPC)
[3] = endpoint: mean survival time, dose: 400.0 mg/kg/injection, schedule: Q04DX003 (ip), vehicle: Klucel (hydroxypropylcellulose) (HPC)
[4] = endpoint: mean survival time, dose: 100.0 mg/kg/injection, schedule: Q04DX003 (ip), vehicle: other
[5] = endpoint: mean survival time, dose: 200.0 mg/kg/injection, schedule: Q04DX003 (ip), vehicle: other
[6] = endpoint: mean survival time, dose: 25.0 mg/kg/injection, schedule: Q04DX003 (ip), vehicle: saline with Tween-80
[7] = endpoint: mean survival time, dose: 50.0 mg/kg/injection, schedule: Q04DX003 (ip), vehicle: saline with Tween-80
[8] = endpoint: mean survival time, dose: 100.0 mg/kg/injection, schedule: Q04DX003 (ip), vehicle: saline with Tween-80
[9] = endpoint: mean survival time, dose: 200.0 mg/kg/injection, schedule: Q04DX003 (ip), vehicle: saline with Tween-80
[10] = endpoint: mean survival time, dose: 400.0 mg/kg/injection, schedule: Q04DX003 (ip), vehicle: saline with Tween-80
[11] = endpoint: mean survival time, dose: 400.0 mg/kg/injection, schedule: Q04DX003 (ip), vehicle: other
[12] = endpoint: mean survival time, dose: 100.0 mg/kg/injection, schedule: Q01DX001 (ip), vehicle: saline
[13] = endpoint: mean survival time, dose: 200.0 mg/kg/injection, schedule: Q01DX001 (ip), vehicle: saline
[14] = endpoint: mean survival time, dose: 400.0 mg/kg/injection, schedule: Q01DX001 (ip), vehicle: saline

Measured: T/C

OC1CCCCCCCCCCC12OCCO2 (stereo not given)
inactive: endpoint: mean survival time, dose: 100.0 mg/kg/injection, schedule: Q04DX002 (ip), vehicle: other 98 % of control | endpoint: mean survival time, dose: 200.0 mg/kg/injection, schedule: Q04DX002 (ip), vehicle: other 113 % of control | endpoint: mean survival time, dose: 400.0 mg/kg/injection, schedule: Q04DX002 (ip), vehicle: other 95 % of control

COc1ccc(/C=N/N=C/c2ccc(OC)cc2)cc1
inactive: [1] 104 % of control | [2] 100 % of control | [3] 114 % of control

O=c1nc(N2CCCCC2)ccn1C1OC(CO)C(O)C1O (stereo not given)
inactive: endpoint: median survival time, dose: 12.5 mg/kg/injection, schedule: Q01DX005 (ip), vehicle: water 98 % of control | endpoint: median survival time, dose: 25.0 mg/kg/injection, schedule: Q01DX005 (ip), vehicle: water 106 % of control | endpoint: median survival time, dose: 50.0 mg/kg/injection, schedule: Q01DX005 (ip), vehicle: water 106 % of control | endpoint: median survival time, dose: 100.0 mg/kg/injection, schedule: Q01DX005 (ip), vehicle: water 112 % of control | endpoint: median survival time, dose: 200.0 mg/kg/injection, schedule: Q01DX005 (ip), vehicle: water 104 % of control

CCOc1c(C#N)c2c(N)ncnc2n1C1OC(CO)C(O)C1O (stereo not given)
inactive: endpoint: mean survival time, dose: 12.5 mg/kg/injection, schedule: Q01DX009 (ip), vehicle: distilled water + Tween-80 103 % of control | endpoint: mean survival time, dose: 25.0 mg/kg/injection, schedule: Q01DX009 (ip), vehicle: distilled water + Tween-80 112 % of control | endpoint: mean survival time, dose: 50.0 mg/kg/injection, schedule: Q01DX009 (ip), vehicle: distilled water + Tween-80 112 % of control | endpoint: mean survival time, dose: 100.0 mg/kg/injection, schedule: Q01DX009 (ip), vehicle: distilled water + Tween-80 117 % of control

COC(=O)C(CSC(c1ccccc1)(c1ccccc1)c1ccccc1)NC(=O)CCNC(=O)OCc1ccccc1 (stereo not given)
inactive: endpoint: mean survival time, dose: 12.5 mg/kg/injection, schedule: Q01DX009 (ip), vehicle: water 93 % of control | endpoint: mean survival time, dose: 25.0 mg/kg/injection, schedule: Q01DX009 (ip), vehicle: water 91 % of control | endpoint: mean survival time, dose: 50.0 mg/kg/injection, schedule: Q01DX009 (ip), vehicle: water 90 % of control | endpoint: mean survival time, dose: 100.0 mg/kg/injection, schedule: Q01DX009 (ip), vehicle: water 90 % of control

O=C(O)CCc1nc2ccccc2c(=O)n1Cc1ccccc1
inactive: [1] 106 % of control | [2] 98 % of control | [3] 95 % of control

O=C(C(F)(F)F)C(F)(F)F (tested in a mixture with another compound)
inactive: endpoint: mean survival time, dose: 25.0 mg/kg/injection, schedule: Q04DX003 (ip), vehicle: other 100 % of control | endpoint: mean survival time, dose: 50.0 mg/kg/injection, schedule: Q04DX003 (ip), vehicle: other 95 % of control | [4] 94 % of control | [5] 92 % of control

[Cl][Fe]([Cl])([Cl])[Cl].c1ccc(-c2cc(-c3ccccc3)[o+]c(-c3ccccc3)c2)cc1
inactive: [6] 87 % of control | [7] 87 % of control | [8] 86 % of control and 91 % of control

Cc1c(NS(=O)(=O)c2ccccc2)c(C)c(NS(=O)(=O)c2ccccc2)c(C)c1NS(=O)(=O)c1ccccc1
inactive: [7] 92 % of control | [8] 88 % of control and 93 % of control | [9] 93 % of control and 94 % of control | [10] 96 % of control

Cc1cccc(SCC(=O)O)c1
inactive: [4] 96 % of control | [5] 96 % of control | [11] 94 % of control

O=C1CSCC(=O)N1
inactive: [4] 111 % of control | [5] 111 % of control | [11] 98 % of control

NCCOS(=O)(=O)O
inactive: endpoint: mean survival time, dose: 25.0 mg/kg/injection, schedule: Q01DX009 (ip), vehicle: saline 102 % of control | endpoint: mean survival time, dose: 50.0 mg/kg/injection, schedule: Q01DX009 (ip), vehicle: saline 98 % of control | endpoint: mean survival time, dose: 100.0 mg/kg/injection, schedule: Q01DX009 (ip), vehicle: saline 96 % of control

COc1cc(OC)c(OC)cc1/C=c1\[nH]c(=O)/c(=C/c2cc(OC)c(OC)cc2OC)[nH]c1=O
inactive: endpoint: mean survival time, dose: 3.13 mg/kg/injection, schedule: Q01DX009 (ip), vehicle: saline with Tween-80 102 % of control | endpoint: mean survival time, dose: 6.25 mg/kg/injection, schedule: Q01DX009 (ip), vehicle: saline with Tween-80 90 % of control | endpoint: mean survival time, dose: 12.5 mg/kg/injection, schedule: Q01DX009 (ip), vehicle: saline with Tween-80 91 % of control | [9] 87 % of control

C1CC[N-]CC1.CC(=N\O)/C(C)=N/O.CC(=N\O)/C(C)=N/O.[CH2-]CCN1CCOCC1.[Co+2]
inactive: endpoint: mean survival time, dose: 25.0 mg/kg/injection, schedule: Q01DX009 (ip), vehicle: saline with Tween-80 105 % of control | [6] 103 % of control | endpoint: mean survival time, dose: 50.0 mg/kg/injection, schedule: Q01DX009 (ip), vehicle: saline with Tween-80 105 % of control | [7] 106 % of control | [8] 112 % of control

CCOC(OCC)c1nc(N)[nH]c(=O)c1CCCCc1ccccc1
inactive: [8] 87 % of control | [9] 87 % of control | [10] 95 % of control

Cc1ccccc1NCc1ccccc1
inactive: [4] 101 % of control | [5] 103 % of control | [11] 100 % of control

O=Cc1c2c(cc3ccccc13)Nc1ccccc1N2
inactive: endpoint: mean survival time, dose: 100.0 mg/kg/injection, schedule: Q04DX002 (ip), vehicle: saline + alcohol 89 % of control | endpoint: mean survival time, dose: 200.0 mg/kg/injection, schedule: Q04DX002 (ip), vehicle: saline + alcohol 89 % of control | endpoint: mean survival time, dose: 400.0 mg/kg/injection, schedule: Q04DX002 (ip), vehicle: saline + alcohol 86 % of control

c1ccc(P(c2cccc3ccccc23)c2cccc3ccccc23)cc1
inactive: [12] 93 % of control | [13] 93 % of control | [14] 91 % of control

COc1cc(C2=NCCO2)cc(OC)c1OC
inactive: [8] 103 % of control | [9] 93 % of control | [10] 93 % of control

O=C(Cn1ccc(=O)[nH]c1=O)c1cc2ccccc2[nH]1
inactive: endpoint: mean survival time, dose: 100.0 mg/kg/injection, schedule: Q04DX002 (ip), vehicle: saline with Tween-80 93 % of control | endpoint: mean survival time, dose: 200.0 mg/kg/injection, schedule: Q04DX002 (ip), vehicle: saline with Tween-80 93 % of control | endpoint: mean survival time, dose: 400.0 mg/kg/injection, schedule: Q04DX002 (ip), vehicle: saline with Tween-80 93 % of control

CC(=O)OCCC/C(=C/c1c[nH]c2ccccc12)[N+](=O)[O-]
inactive: [12] 97 % of control | [13] 102 % of control | [14] 109 % of control

CC(=O)/C=C\C1OC(n2ccc(=O)[nH]c2=O)C2OC(C)(C)OC12 (stereo not given)
inactive: endpoint: mean survival time, dose: 12.5 mg/kg/injection, schedule: Q01DX005 (ip), vehicle: distilled water + Tween-80 105 % of control | endpoint: mean survival time, dose: 25.0 mg/kg/injection, schedule: Q01DX005 (ip), vehicle: distilled water + Tween-80 103 % of control | endpoint: mean survival time, dose: 50.0 mg/kg/injection, schedule: Q01DX005 (ip), vehicle: distilled water + Tween-80 97 % of control | endpoint: mean survival time, dose: 100.0 mg/kg/injection, schedule: Q01DX005 (ip), vehicle: distilled water + Tween-80 102 % of control | endpoint: mean survival time, dose: 200.0 mg/kg/injection, schedule: Q01DX005 (ip), vehicle: distilled water + Tween-80 103 % of control

CCO/C=N/NC(=O)CNC(=O)C=[N+]=[N-]
inactive: [8] 108 % of control | [9] 103 % of control | [10] 108 % of control

CC(=O)Nc1c(C#N)ncn1C1OC(CO)C(O)C1O (stereo not given)
inactive: endpoint: median survival time, dose: 12.5 mg/kg/injection, schedule: Q01DX005 (ip), vehicle: saline 104 % of control | endpoint: median survival time, dose: 25.0 mg/kg/injection, schedule: Q01DX005 (ip), vehicle: saline 103 % of control | endpoint: median survival time, dose: 50.0 mg/kg/injection, schedule: Q01DX005 (ip), vehicle: saline 92 % of control | endpoint: median survival time, dose: 100.0 mg/kg/injection, schedule: Q01DX005 (ip), vehicle: saline 101 % of control | endpoint: median survival time, dose: 200.0 mg/kg/injection, schedule: Q01DX005 (ip), vehicle: saline 100 % of control
